Assay results from PMC7587356, “High-Throughput Screening for Inhibitors of the SARS-CoV-2 Protease Using a FRET-Biosensor” (Molecules, 2020).
Where a name gives a salt, the structure may show the parent alone. Read-outs that look alike come from different tables or passages of the source.

Molecular target: SARS-CoV-2 3CLpro (Severe acute respiratory syndrome coronavirus 2, UniProt P0DTD1)
Assay: biochemical
Type: biochemical
Design: Replicate_1 / Replicate_2 / mean / mean (LOPAC_screen_w_protease): unit not given here
Details: for inhibition at 5 µM: 4 h
[1] = sheet LOPAC_screen_w_protease, primary screen of LOPAC1280 at 5 µM with protease, mean of the two replicates, read-out: mean
[2] = sheet LOPAC_screen_w_protease, primary screen of LOPAC1280 at 5 µM with protease, replicate 1, read-out: Replicate_1
[3] = sheet LOPAC_screen_w_protease, primary screen of LOPAC1280 at 5 µM with protease, replicate 2, read-out: Replicate_2
[4] = sheet LOPAC_screen_w_protease, primary screen with protease, compound at 5 µM, mean of two replicates, read-out: mean
[5] = sheet LOPAC_screen_w_protease, primary screen with protease, compound at 5 µM, replicate 1, read-out: Replicate_1
[6] = sheet LOPAC_screen_w_protease, primary screen with protease, compound at 5 µM, replicate 2, read-out: Replicate_2
[7] = sheet LOPAC_screen_w_protease, primary screen at 5 µM, mean of two replicates, read-out: mean (LOPAC screen with protease)
[8] = sheet LOPAC_screen_w_protease, primary screen at 5 µM, replicate 1, read-out: Replicate_1 (LOPAC screen with protease)
[9] = sheet LOPAC_screen_w_protease, primary screen at 5 µM, replicate 2, read-out: Replicate_2 (LOPAC screen with protease)
[10] = sheet LOPAC_screen_w_protease, LOPAC1280 at 5 µM, mean of two replicates, read-out: mean
[11] = sheet LOPAC_screen_w_protease, LOPAC1280 at 5 µM, replicate 1, read-out: Replicate_1
[12] = sheet LOPAC_screen_w_protease, LOPAC1280 at 5 µM, replicate 2, read-out: Replicate_2
[13] = LOPAC1280 primary screen with protease, 5 µM compound, replicate 1, read-out: Replicate_1 (LOPAC_screen_w_protease)
[14] = LOPAC1280 primary screen with protease, 5 µM compound, replicate 2, read-out: Replicate_2 (LOPAC_screen_w_protease)
[15] = LOPAC1280 primary screen with protease, 5 µM compound, mean of the two replicates
[16] = sheet LOPAC_screen_w_protease, primary screen with protease, mean of two replicates, read-out: mean
[17] = sheet LOPAC_screen_w_protease, primary screen with protease, replicate 1, read-out: Replicate_1
[18] = sheet LOPAC_screen_w_protease, primary screen with protease, replicate 2, read-out: Replicate_2
[19] = sheet LOPAC_screen_w_protease, primary screen with protease, compound at 5 µM, mean of two replicates
[20] = sheet LOPAC_screen_w_protease, primary screen with protease, compound at 5 µM, replicate 1
[21] = sheet LOPAC_screen_w_protease, primary screen with protease, compound at 5 µM, replicate 2
[22] = LOPAC1280 primary screen with protease, 5 µM compound, mean of two replicates
[23] = read-out: Replicate_1 (LOPAC_screen_w_protease)
[24] = read-out: Replicate_2 (LOPAC_screen_w_protease)

## CC(=O)OCC1=C(C(=O)O)N2C(=O)[C@@H](NC(=O)CSc3ccncc3)[C@H]2SC1 [Cephapirin sodium]
[1]
  inhibition at 5 µM: 4.07%
[2]
  inhibition at 5 µM: 3.36%
[3]
  inhibition at 5 µM: 4.79%

## CC1=C(C(=O)O)N2C(=O)[C@@H](NC(=O)[C@H](N)C3=CCC=CC3)[C@H]2SC1 [Cephradine]
[4]
  inhibition at 5 µM: 3.13%
[5]
  inhibition at 5 µM: 2.84%
[6]
  inhibition at 5 µM: 3.42%

## COc1ccc2c(c[n+](C)c3c4cc5c(cc4ccc23)OCO5)c1OC [Chelerythrine chloride]
[7]
  inhibition at 5 µM: 11.5%
[8]
  inhibition at 5 µM: 12.7%
[9]
  inhibition at 5 µM: 10.3%

## O=C(O)c1cc(O)cc(C(=O)O)n1 [Chelidamic acid]
[4]
  inhibition at 5 µM: 3.14%
[5]
  inhibition at 5 µM: 2.7%
[6]
  inhibition at 5 µM: 3.58%

## CN1C(=O)CCS(=O)(=O)C1c1ccc(Cl)cc1 (stereo not drawn) [Chlormezanone]
Sheet LOPAC_screen_w_protease, LOPAC1280 primary screen at 5 µM, with protease, mean of the two replicates, read-out: mean
  inhibition at 5 µM: 0.463%
Sheet LOPAC_screen_w_protease, LOPAC1280 primary screen at 5 µM, with protease, replicate 1, read-out: Replicate_1
  inhibition at 5 µM: 2.15%
Sheet LOPAC_screen_w_protease, LOPAC1280 primary screen at 5 µM, with protease, replicate 2, read-out: Replicate_2
  inhibition at 5 µM: -1.22%

## CNC(=O)[C@H]1O[C@@H](n2cnc3c(NCc4cccc(I)c4)nc(Cl)nc32)[C@H](O)[C@@H]1O [Chloro-IB-MECA]
[1]
  inhibition at 5 µM: 3.22%
[2]
  inhibition at 5 µM: 4.25%
[3]
  inhibition at 5 µM: 2.19%

## CCN(CC)CCCC(C)Nc1ccnc2cc(Cl)ccc12 (stereo not drawn) [Chloroquine diphosphate]
read-out: Replicate_1
  inhibition at 5 µM: 2.19%
read-out: Replicate_2
  inhibition at 5 µM: 3.74%
read-out: mean
  inhibition at 5 µM: 2.97%

## NS(=O)(=O)c1cc2c(cc1Cl)N=CNS2(=O)=O [Chlorothiazide]
[10]
  inhibition at 5 µM: 0.892%
[11]
  inhibition at 5 µM: 1.61%
[12]
  inhibition at 5 µM: 0.17%

## CN(C)CCCN1c2ccccc2Sc2ccc(Cl)cc21 [Chlorpromazine hydrochloride]
read-out: Replicate_1
  inhibition at 5 µM: 0.794%
read-out: Replicate_2
  inhibition at 5 µM: 0.374%
read-out: mean
  inhibition at 5 µM: 0.584%

## CCCNC(=O)NS(=O)(=O)c1ccc(Cl)cc1 [Chlorpropamide]
[13]
  inhibition at 5 µM: 1.51%
[14]
  inhibition at 5 µM: 2.73%
[15]
  mean (LOPAC_screen_w_protease): 2.118

## CN(C)CC/C=C1/c2ccccc2Sc2ccc(Cl)cc21 [Chlorprothixene hydrochloride]
[10]
  inhibition at 5 µM: 1.25%
[11]
  inhibition at 5 µM: 0.326%
[12]
  inhibition at 5 µM: 2.17%

## C[N+](C)(C)CCO.[Br-] [Choline bromide]
  Replicate_1: 2.262
  Replicate_2: 3.547
  mean: 2.905

## CN(C(=O)CCCOc1ccc2[nH]c(=O)ccc2c1)C1CCCCC1 [Cilostamide]
[16]
  inhibition at 5 µM: 2.23%
[17]
  inhibition at 5 µM: 1.11%
[18]
  inhibition at 5 µM: 3.35%

## O=C1CCc2cc(OCCCCc3nnnn3C3CCCCC3)ccc2N1 [Cilostazol]
[16]
  inhibition at 5 µM: 2.16%
[17]
  inhibition at 5 µM: 1.9%
[18]
  inhibition at 5 µM: 2.42%

## CN/C(=N/CCSCc1nc[nH]c1C)NC#N [Cimetidine]
read-out: Replicate_1
  inhibition at 5 µM: 1.76%
read-out: Replicate_2
  inhibition at 5 µM: 2.91%
read-out: mean
  inhibition at 5 µM: 2.34%

## CCn1nc(C(=O)O)c(=O)c2cc3c(cc21)OCO3 [Cinoxacin]
[13]
  inhibition at 5 µM: -0.0118%
[14]
  inhibition at 5 µM: 4.09%
[15]
  mean (LOPAC_screen_w_protease): 2.037

## CC(C)(Oc1ccc(C2CC2(Cl)Cl)cc1)C(=O)O (stereo not drawn) [Ciprofibrate]
[16]
  inhibition at 5 µM: 2.4%
[17]
  inhibition at 5 µM: 2.2%
[18]
  inhibition at 5 µM: 2.6%

## c1ccc(C2CC2)c(OCC2=NCCN2)c1 [Cirazoline hydrochloride]
[13]
  inhibition at 5 µM: 2.66%
[14]
  inhibition at 5 µM: 1%
[15]
  mean (LOPAC_screen_w_protease): 1.832

## CN(C)CCCC1(c2ccc(F)cc2)OCc2cc(C#N)ccc21 (stereo not drawn) [Citalopram hydrobromide]
[10]
  inhibition at 5 µM: 1.26%
[11]
  inhibition at 5 µM: 1.98%
[12]
  inhibition at 5 µM: 0.536%

## C[N+](C)(C)CCOP(=O)([O-])OP(=O)([O-])OC[C@H]1O[C@@H](n2ccc(N)nc2=O)[C@H](O)[C@@H]1O.[Na+] [Citicoline sodium]
[15]
  mean (LOPAC_screen_w_protease): 2.039
LOPAC1280 primary screen with protease, 5 µM compound, replicate 1
  Replicate_1 (LOPAC_screen_w_protease): 0.6867
LOPAC1280 primary screen with protease, 5 µM compound, replicate 2
  Replicate_2 (LOPAC_screen_w_protease): 3.392

## Cl.Clc1ccc(Cn2c(CN3CCCC3)nc3ccccc32)cc1 [Clemizole hydrochloride]
[19]
  mean: 3.083
[20]
  Replicate_1: 2.873
[21]
  Replicate_2: 3.2929

## O=P(O)(O)C(Cl)(Cl)P(=O)(O)O [Clodronic acid]
[13]
  inhibition at 5 µM: 2.04%
[14]
  inhibition at 5 µM: 1.36%
[22]
  mean (LOPAC_screen_w_protease): 1.697

## CCOC(=O)C(C)(C)Oc1ccc(Cl)cc1 [Clofibrate]
[4]
  inhibition at 5 µM: 2.71%
[5]
  inhibition at 5 µM: 1.49%
[6]
  inhibition at 5 µM: 3.93%

## Clc1cccc(Cl)c1N=C1NCCN1 [Clonidine hydrochloride]
  mean (LOPAC_screen_w_protease): 1.822
[23]
  inhibition at 5 µM: 1.42%
[24]
  inhibition at 5 µM: 2.22%

## Clc1ccccc1C(c1ccccc1)(c1ccccc1)n1ccnc1 [Clotrimazole]
read-out: Replicate_1
  inhibition at 5 µM: 3.08%
read-out: Replicate_2
  inhibition at 5 µM: 3.07%
read-out: mean
  inhibition at 5 µM: 3.07%

## CN1CCN(C2=Nc3cc(Cl)ccc3Nc3ccccc32)CC1 [Clozapine]
[16]
  inhibition at 5 µM: 2.28%
[17]
  inhibition at 5 µM: 2.27%
[18]
  inhibition at 5 µM: 2.3%

## C[C@]12CCC(=O)C=C1CC[C@@H]1[C@@H]2CC[C@@]2(C)[C@H]1CC[C@]2(O)C(=O)CO [Cortexolone]
[10]
  inhibition at 5 µM: 1.01%
[11]
  inhibition at 5 µM: 2.17%
[12]
  inhibition at 5 µM: -0.141%

## CC(=O)OCC(=O)[C@@]1(O)CC[C@H]2[C@@H]3CCC4=CC(=O)CC[C@]4(C)[C@H]3C(=O)C[C@@]21C [Cortisone 21-acetate]
[13]
  inhibition at 5 µM: 2.66%
[14]
  inhibition at 5 µM: 0.881%
[15]
  mean (LOPAC_screen_w_protease): 1.771

## CN(C)CCC=C1c2ccccc2C=Cc2ccccc21 [Cyclobenzaprine hydrochloride]
  mean (LOPAC_screen_w_protease): 2.047
[23]
  inhibition at 5 µM: 3.03%
[24]
  inhibition at 5 µM: 1.06%

## O=P1(N(CCCl)CCCl)NCCCO1 (stereo not drawn) [Cyclophosphamide monohydrate]
read-out: Replicate_1
  inhibition at 5 µM: -1.54%
read-out: Replicate_2
  inhibition at 5 µM: 3.01%
read-out: mean
  inhibition at 5 µM: 0.736%

## NS(=O)(=O)c1cc2c(cc1Cl)NC(C1CC3C=CC1C3)NS2(=O)=O (stereo not drawn) [Cyclothiazide]
[4]
  inhibition at 5 µM: 2.93%
[5]
  inhibition at 5 µM: 4.25%
[6]
  inhibition at 5 µM: 1.61%

## CN1CCC(=C2c3ccccc3C=Cc3ccccc32)CC1 [Cyproheptadine hydrochloride]
[13]
  inhibition at 5 µM: 4.15%
[14]
  inhibition at 5 µM: 0.0977%
[15]
  mean (LOPAC_screen_w_protease): 2.126

## CC(=O)O[C@]1(C(C)=O)CC[C@H]2[C@@H]3C=C(Cl)C4=CC(=O)[C@@H]5C[C@@H]5[C@]4(C)[C@H]3CC[C@@]21C [Cyproterone acetate]
Sheet LOPAC_screen_w_protease, primary screen with protease, 5 µM, mean of two replicates, read-out: mean
  inhibition at 5 µM: -0.427%
Sheet LOPAC_screen_w_protease, primary screen with protease, 5 µM, replicate 1, read-out: Replicate_1
  inhibition at 5 µM: 1.58%
Sheet LOPAC_screen_w_protease, primary screen with protease, 5 µM, replicate 2, read-out: Replicate_2
  inhibition at 5 µM: -2.43%

## NCCSSCCN [Cystamine dihydrochloride]
[7]
  inhibition at 5 µM: 14.4%
[8]
  inhibition at 5 µM: 14.2%
[9]
  inhibition at 5 µM: 14.5%

## Cl.NCCS [Cysteamine hydrochloride]
Sheet LOPAC_screen_w_protease, primary screen at 5 µM, mean of two replicates
  mean (LOPAC screen with protease): 8.502
Sheet LOPAC_screen_w_protease, primary screen at 5 µM, replicate 1
  Replicate_1 (LOPAC screen with protease): 9.009
Sheet LOPAC_screen_w_protease, primary screen at 5 µM, replicate 2
  Replicate_2 (LOPAC screen with protease): 7.996

## N[C@H](CCCCCP(=O)(O)O)C(=O)O [D(-)-2-Amino-7-phosphonoheptanoic acid]
[19]
  mean: 3.051
[20]
  Replicate_1: 3.469
[21]
  Replicate_2: 2.633

## S=C([S-])OC1CC2CC1C1CCCC21.[K+] [D-609 potassium]
Sheet LOPAC_screen_w_protease, LOPAC1280 primary screen at 5 µM, with protease, mean of two replicates
  mean: -1.918
Sheet LOPAC_screen_w_protease, LOPAC1280 primary screen at 5 µM, with protease, replicate 1
  Replicate_1: -2.8235
Sheet LOPAC_screen_w_protease, LOPAC1280 primary screen at 5 µM, with protease, replicate 2
  Replicate_2: -1.0122

## N[C@@H]1CON=C1O [D-Cycloserine]
[13]
  inhibition at 5 µM: 2.63%
[14]
  inhibition at 5 µM: 0.045%
[22]
  mean (LOPAC_screen_w_protease): 1.34
